Experimental data published in ChEMBL document CHEMBL3272045, “4-amino-6-(trichloroethenyl)-1,3-benzenedisulfonamide, a new, potent fasciolicide” (J Med Chem, 1977).

How the values were obtained:
Fasciola hepatica [1] = assay: Fasciolicidal activity against Fasciola hepatica metacercariae infected in rat assessed as elimination of liver flukes at 3.1 mg/kg, po administered as single dose; format: functional
Fasciola hepatica [2] = assay: Fasciolicidal activity against Fasciola hepatica metacercariae infected in sheep assessed as elimination of liver flukes at 15 mg/kg, po measured 6 weeks after infection; format: functional; conditions: 1008 h
Fasciola hepatica [3] = assay: Fasciolicidal activity against Fasciola hepatica metacercariae infected in calves assessed as elimination of liver flukes at 15 mg/kg, po measured 8 weeks after infection; format: functional; conditions: 1344 h
Fasciola hepatica [4] = assay: Fasciolicidal activity against Fasciola hepatica metacercariae infected in sheep assessed as elimination of liver flukes at 2.5 mg/kg, po measured 16 weeks after infection; format: functional; conditions: 2688 h
Ovis aries = assay: Toxicity in Fasciola hepatica metacercariae infected in sheep assessed as induction of gross toxic reactions at 200 to 400 mg/kg, po administered as single dose; format: organism-based; parameters: dose 200-400 mg/kg, route oral; conditions: in vivo
Fasciola hepatica [5] = assay: Fasciolicidal activity against Fasciola hepatica metacercariae infected in po dosed rat assessed as elimination of liver flukes administered as single dose; format: functional; conditions: read-out: MED

For `Nc1cc(C(Cl)=C(Cl)Cl)c(S(N)(=O)=O)cc1S(N)(=O)=O` [CLORSULON], the inhibition in vivo at 3.1 mg/kg (Fasciola hepatica [1]) was > 90%, the inhibition in vivo at 15 mg/kg (Fasciola hepatica [2]) was > 90% and the inhibition in vivo at 15 mg/kg (Fasciola hepatica [3]) was > 90%. For the same molecule, the inhibition in vivo at 2.5 mg/kg (Fasciola hepatica [4]) was 90% and the Activity (Ovis aries) was “Non-toxic”.
In the case of `O=C(Nc1ccc(Oc2ccc(Cl)cc2)c(Cl)c1)c1cc(I)cc(I)c1O` [RAFOXANIDE], the minimal effective dose (Fasciola hepatica [5]) was 3.1 mg/kg.
